Assay results: patent US11254700B2, “GSK-3β inhibitors and use thereof in methods of treatment” (UNIVERSITY OF HAWAII, priority 2017, dated 2022)
Several values for one entry are separate records, joined by “and”; a condition that tells them apart may be missing. Identical values can stand only once. Entries after “also recorded” stand apart in the source; their conditions may differ. Like-named read-outs stand apart in the source and are kept apart here. Each block holds one compound with its values, some of them ahead of it.

Experiments:
in vitro = settings: for Pe / R (percent recovery): 20 μM; for permeability compared to isoorientin 1: 5-hour incubation
Description: Samples were run in quadruplicate.
Oral administration is noninvasive and is preferred for chronical diseases such as Alzheimer's disease and other CNS disorders. […] In the PAMPA model, the amount of target compounds diffused from a donor compartment to an acceptor compartment through a tri-layer phospholipid pre-coated membrane are measured to assess oral-absorption potential of drug candidates. In the present study, 1, 4, 9, 17, 21 and 30 were evaluated with the PAMPA assay.

GSK-3β [1] = biological target: T1, GSK-3β (Homo sapiens, UniProt P49841); test: Kinase luminescent assay (ADP-Glo), GSK-3β inhibition; assay type: biochemical; settings: for IC50: 25 μM ATP, 1 hour, room temperature, mean of quadruplicate of two experiments, read-out: IC50 against GSK-3β
Description: Kinase Luminescent Assay.
Kinase inhibition was assessed with the ADP-Glo Kinase Assay. […] The reaction mixture was incubated for 1 hour at room temperature followed by the addition of the ADP-Glo′ reagents according to the manufacturer's protocol. The kinase inhibitor staurosporine was used at 1 μM as a reference control. Each data point was collected in quadruplicate of two independent experiments.
Target sequence in this assay (P49841 whole entry): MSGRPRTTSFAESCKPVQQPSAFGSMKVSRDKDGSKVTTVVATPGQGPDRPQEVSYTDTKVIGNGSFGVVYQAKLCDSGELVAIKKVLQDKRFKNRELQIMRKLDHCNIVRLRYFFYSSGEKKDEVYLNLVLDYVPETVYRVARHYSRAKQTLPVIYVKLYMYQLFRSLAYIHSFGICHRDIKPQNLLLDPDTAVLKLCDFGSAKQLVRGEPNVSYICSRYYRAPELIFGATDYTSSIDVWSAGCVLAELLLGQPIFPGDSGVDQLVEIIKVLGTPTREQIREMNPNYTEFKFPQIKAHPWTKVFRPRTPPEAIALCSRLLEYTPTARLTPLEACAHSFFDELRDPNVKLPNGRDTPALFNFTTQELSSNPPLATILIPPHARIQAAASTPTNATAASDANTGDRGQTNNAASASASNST

[2] = system: GSK-3β-mediated tau phosphorylation (pS396) in SH-SY5Y lysate; test: Whole-cell lysate GSK-3β assay with human Tau pS396 ELISA; assay type: biochemical; settings: for GSK-3β-mediated tau hyperphosphorylation at pS396: 2, 10 and 50 μM, 2 hours, 37° C., lysate with 0.25% GSK-3β
Description: Whole-Cell Lysate GSK-3β Assay.
The assay procedure was followed as described (Liang, et al. (2016) ACS Chem. Neurosci. 7:912-923). SH-SY5Y cells were washed with phosphate-buffered saline (PBS) and lysed with cell extraction buffer containing 10 mM Tris, pH 7.4, 100 mM NaCl, 1 mM EDTA, 1 mM EGTA, 1 mM NaF, 20 mM Na4P2O7, 2 mM Na3VO4, 1% Triton X-100, 10% glycerol, 0.1% sodium dodecyl sulfate (SDS), 0.5% sodium deoxycholate, 1 mM phenylmethanesulfonyl fluoride (PMSF) and a protease inhibitor cocktail. Lysate was diluted with kinase buffer (40 mM Tris, pH 7.5, 20 mM MgCl2, 50 μM DTT, 400 μM ATP) to afford a concentration of 5 μg/μL of total protein, and split into aliquots. Recombinant human GSK-3β was fortified into lysate aliquots to a final concentration of 0.25% (wt/wt) of total protein. A lysate aliquot fortified with heat-inactivated GSK-3β was used as a negative control. The fortified lysate aliquots were incubated with test sample or 5% DMSO vehicle at 37° C. for 2 hours followed by ELISA analysis.
The quantitative determination of phosphorylated human tau at GSK-3β specific pS396 site was conducted by taking 50 μL diluted cell lysate and using a specific antibody against human tau [pS396] in a sandwich ELISA according to the manufacturer's protocol. Tau phosphorylation was quantified by measuring the absorbance at 450 nm in a microtiter plate reader. The analysis was collected in quadruplicate of two independent experiments.

GSK-3β [3] = biological target: T1, GSK-3β; settings: background; cited from earlier work
Target sequence in this assay (P49841 whole entry, species assumed): as the sequence (P49841 whole entry) above

GSK-3β [4] = biological target: T1, GSK-3β; test: GSK-3β kinetics (Lineweaver-Burk), ATP or substrate GS2 competition; assay type: biochemical; settings: 30 at 0 to 5 μM
Description: To study GSK-3β kinetics, a reaction solution contained 5 ng/μL kinase, 40 mM Tris, pH 7.5, 20 mM MgCl2, 0.1 mg/mL BSA, 50 μM DTT, and varying concentrations of ATP or substrate GS2 (residues 636-662 of human muscle glycogen synthase) versus test samples. The mixture was incubated for 5, 15, 30, and 60 minutes at room temperature followed by the addition of the ADP-Glo′ reagents according to the manufacturer's protocol. The Lineweaver-Burk representation is derived from the double reciprocal plotting of the enzyme kinetic data.
Under a constant concentration of the substrate GS2 (17 μM), ATP concentrations varied from 2 to 50 μM and 30 concentrations varied from 0 to 5 μM. […] In the second set of experiments under a constant concentration of ATP (10 μM), substrate GS2 concentrations varied from 8 to 66 μM and 30 concentrations varied from 0 to 5 μM. […] The enzyme inhibitory behaviors of 30 are similar to that of the parent compound 1 (Liang, et al. (2016) ACS Chem. Neurosci. 7:912-923) and therefore confirm that the new analogues are indeed substrate-competitive inhibitors of GSK-3β.
Target sequence in this assay (P49841 whole entry): as above

GSK-3β [5] = biological target: T1, GSK-3β; test: Kinase selectivity profile, GSK-3β; assay type: biochemical
Description: (§1) Kinase inhibition was assessed with the ADP-Glo Kinase Assay. For screening, 5 ng/μL of kinase was assayed in a reaction containing 50 ng/μL substrate, 40 mM Tris, pH 7.5, 20 mM MgCl2, 0.1 mg/mL bovine serum albumin, 50 μM dithiothreitol (DTT), 25 μM ATP, varying concentrations of test samples or 5% DMSO as vehicle. The reaction mixture was incubated for 1 hour at room temperature followed by the addition of the ADP-Glo′ reagents according to the manufacturer's protocol. The kinase inhibitor staurosporine was used at 1 μM as a reference control. Each data point was collected in quadruplicate of two independent experiments.
(§2) To assess kinase selectivity, compound 30 was screened against a panel of 41 human protein kinases of relevance to Alzheimer's disease and other CNS disorders (Martin, et al. (2013) Aging Res. Rev. 12:289-309). […] The exceptional selectivity of compound 30 to GSK-3β can effectively minimize risk of off-target effects.
Target sequence in this assay (P49841 whole entry): as above

GSK-3α = GSK-3α (Homo sapiens, UniProt P49840); test: Kinase selectivity profile, GSK-3α; assay type: biochemical
Description: as §1, §2

[6] = system: panel of 41 human protein kinases; test: Kinase selectivity profile, other kinases of the panel; assay type: biochemical; settings: 5 μM
Description: as §1, §2

SH-SY5Y cells = test: Cytotoxicity in SH-SY5Y cells; assay type: cell-based, human; settings: 1000 μM
Description: (§3) Human neuroblastoma SH-SY5Y cell line (Sigma-Aldrich, Saint Louis, Mo.) was cultured in DMEM/F12 (v/v 1:1) media supplemented with 2 mM glutamine, 10% heat-inactivated fetal bovine serum (FBS) and 1% antibiotics including penicillin and streptomycin. After reaching 70-80% confluence, cells were then subcultured on poly-L-lysine plates with 10 μM retinoic acid in a reduced serum media (1% FBS) to promote neuronal maturation and differentiation as described (Agholme, et al. (2010) J. Alzheimer's Dis. 20: 1069-1082). Cell cultures were incubated at 37° C. in a fully humidified atmosphere containing 5% CO2.
(§4) SH-SY5Y cells were seeded at a density of 3×10^5 cells/mL in a 96-well plate in DMEM/F12 media containing 10 μM retinoic acid and 1% FBS to suppress cell proliferation. Cells were incubated under regular culture conditions for attachment. After 24 hours of plating, the cells were pretreated with different concentrations of test samples or the 0.2% DMSO as a vehicle control for 1 hour and then co-incubated with 10 μM Aβ42 for 72 hours. After the experimental treatment, the cells were subject to a […]® 96 AQueous One Solution Cell Proliferation […] Assay according to the manufacturer's instruction. […] Each data point was collected in triplicate of two independent experiments.

[7] = system: SH-SY5Y cells treated with Aβ42 oligomers; test: Anti-Aβ42 neurotoxicity assay; assay type: cell-based, human
Description: as §3
The toxic oligomers of Aβ42 were prepared as described (Liang, et al. (2016) ACS Chem. Neurosci. 7:912-923). Briefly, lyophilized Aβ42 peptide was dissolved in hexafluoroisopropanol, dried under vacuum, and stored at −20° C. Immediately prior to use, the peptide residue was reconstituted in DMEM/F12 media to make a stock solution at 0.1 mM and incubated at 4° C. for 24 hours to form diffusible oligomers. Aβ42 oligomers at a final concentration of 10 μM were assayed for cell viability.
as §4

[8] = pH 7.4, 5 hours, room temperature, mean ±SD

Chain of GSK-3α (P49840 whole entry): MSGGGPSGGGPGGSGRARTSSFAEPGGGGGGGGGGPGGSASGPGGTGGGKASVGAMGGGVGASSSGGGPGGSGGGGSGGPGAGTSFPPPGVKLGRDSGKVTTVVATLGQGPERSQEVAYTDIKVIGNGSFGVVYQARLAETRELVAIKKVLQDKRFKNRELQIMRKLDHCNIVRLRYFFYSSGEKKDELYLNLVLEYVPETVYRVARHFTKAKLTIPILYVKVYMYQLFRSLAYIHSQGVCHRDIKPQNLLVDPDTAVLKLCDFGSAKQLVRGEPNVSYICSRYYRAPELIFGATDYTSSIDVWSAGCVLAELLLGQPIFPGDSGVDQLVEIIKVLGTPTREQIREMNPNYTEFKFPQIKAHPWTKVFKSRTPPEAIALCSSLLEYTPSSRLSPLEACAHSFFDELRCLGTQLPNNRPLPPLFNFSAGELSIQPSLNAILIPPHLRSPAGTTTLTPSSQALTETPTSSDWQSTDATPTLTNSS

Pe (in vitro; PAMPA, 5 h, pH 7.4): 13.43 ± 0.91 ×10^−6 cm/s
R (percent recovery) (in vitro; PAMPA, 5 h, pH 7.4): 96%
SMILES: CNCCCN1c2ccccc2CCc2ccccc21 [Desipramine, reference compound]

SMILES: O=c1cc(-c2ccc(O)c(O)c2)oc2cc(O)cc(O)c12 [Compound 4, luteolin, reference compound]
IC50 (GSK-3β [1]): 3.1 µM
Pe (in vitro; PAMPA, 5 h, pH 7.4): 1.42 ± 0.07 ×10^−6 cm/s
R (percent recovery) (in vitro; PAMPA, 5 h, pH 7.4): 43%
Papp at 5 h, 20 µM (in vitro; PAMPA, pH 7.4): 1 to 1.5 ×10⁻⁶ cm/s

SMILES: COc1ccc(-c2cc(=O)c3c(OC)c([C@@H]4O[C@H](C(=O)NCc5ccccc5)[C@@H](O)[C@H](O)[C@H]4O)c(OC)cc3o2)cc1OC [Compound 21, (2S,3S,4R,5R,6S)-6-(2-(3,4-Dimethoxyphenyl)-5,7-dimethoxy-4-oxo-4H-chromen-6-yl)-3,4,5-trihydroxy-N-benzyltetrahydro-2H-pyran-2-carboxamide]
IC50 (GSK-3β [1]): 15.8 ± 1.2 µM
R (percent recovery) (in vitro; pH 7.4, 5 hours): 30%
Pe (in vitro; [8]): 1.35 ± 0.08 ×10^−6 cm/s
permeability compared to isoorientin 1 (in vitro): significant increase in permeability
Permeability classification (in vitro; PAMPA): medium (medium (1.0 × 10^−6 cm/s ≤ Pe ≤ 1.5 × 10^−6 cm/s))
GSK-3β-mediated tau hyperphosphorylation at pS396 [2]: effectively attenuated tau hyperphosphorylation in a dose-dependent manner; also recorded: attenuate GSK-3β-mediated tau phosphorylation

SMILES: O=C([O-])[O-].[Li+].[Li+] [lithium carbonate]
IC50 (GSK-3β [3]): 2000 µM

SMILES: COc1ccc(-c2cc(=O)c3c(OC)c([C@@H]4O[C@H](C(=O)NC5CCCCC5)[C@@H](O)[C@H](O)[C@H]4O)c(OC)cc3o2)cc1OC [Compound 17, (2S,3S,4R,5R,6S)—N-Cyclohexyl-6-(2-(3,4-dimethoxyphenyl)-5,7-dimethoxy-4-oxo-4H-chromen-6-yl)-3,4,5-trihydroxytetrahydro-2H-pyran-2-carboxamide]
IC50 (GSK-3β [1]): 9 ± 1.3 µM
R (percent recovery) (in vitro; pH 7.4, 5 hours): 20%
Pe (in vitro; [8]): 1.77 ± 0.07 ×10^−6 cm/s
permeability compared to isoorientin 1 (in vitro): significant increase in permeability
Permeability classification (in vitro; PAMPA): high (high (Pe > 1.5 × 10^−6 cm/s))
GSK-3β-mediated tau hyperphosphorylation at pS396 [2]: effectively attenuated tau hyperphosphorylation in a dose-dependent manner; also recorded: attenuate GSK-3β-mediated tau phosphorylation

SMILES: COc1ccc(-c2cc(=O)c3c(OC)c([C@@H]4O[C@H](C(=O)NC(C)C)[C@@H](O)[C@H](O)[C@H]4O)c(OC)cc3o2)cc1OC [Compound 9, (2S,3S,4R,5R,6S)-6-(2-(3,4-Dimethoxyphenyl)-5,7-dimethoxy-4-oxo-4H-chromen-6-yl)-3,4,5-trihydroxy-N-isopropyltetrahydro-2H-pyran-2-carboxamide]
IC50 (GSK-3β [1]): 5.4 ± 0.1 µM
R (percent recovery) (in vitro; pH 7.4, 5 hours): 46%
Pe (in vitro; [8]): 1.55 ± 0.06 ×10^−6 cm/s
permeability compared to isoorientin 1 (in vitro): significant increase in permeability
Permeability classification (in vitro; PAMPA): high (high (Pe > 1.5 × 10^−6 cm/s))
GSK-3β-mediated tau hyperphosphorylation at pS396 [2]: effectively attenuated tau hyperphosphorylation in a dose-dependent manner; also recorded: attenuate GSK-3β-mediated tau phosphorylation

SMILES: COc1ccc(-c2cc(=O)c3c(OC)c([C@@H]4O[C@H](C(=O)N[C@@H](C)C(F)(F)F)[C@@H](O)[C@H](O)[C@H]4O)c(OC)cc3o2)cc1OC [Compound 30, (2S,3S,4R,5R,6S)-6-(2-(3,4-Dimethoxyphenyl)-5,7-dimethoxy-4-oxo-4H-chromen-6-yl)-3,4,5-trihydroxy-N—((S)-1,1,1-trifluoropropan-2-yl)tetrahydro-2H-pyran-2-carboxamide]
LiPE (pIC50−CLogP) (GSK-3β [1]): > 4
IC50 (GSK-3β [1]): < 20 µM and 0.59 µM
potency against GSK-3β relative to epimer 31 (GSK-3β [1]; vs 31): about 4 fold
increase of potency against GSK-3β relative to 1 (GSK-3β [1]; vs isoorientin 1): 310 fold
R (percent recovery) (in vitro; pH 7.4, 5 hours): 30%
Pe (in vitro; [8]): 2.23 ± 0.21 ×10^−6 cm/s
Permeability classification (in vitro; PAMPA): high (high (Pe > 1.5 × 10^−6 cm/s))
inhibition of tau hyperphosphorylation compared to TDZD-8 ([2]; 10 μM, TDZD-8 at the same concentration): better inhibition against tau hyperphosphorylation
GSK-3β-mediated tau hyperphosphorylation at pS396 [2]: effectively attenuated tau hyperphosphorylation in a dose-dependent manner; also recorded: attenuate GSK-3β-mediated tau phosphorylation
competition with substrate GS2 (GSK-3β [4]; ATP 10 μM, GS2 8 to 66 μM): competed with the substrate GS2
competition with ATP (GSK-3β [4]; GS2 17 μM, ATP 2 to 50 μM): no competition between ATP and 30
specificity for GSK-3β versus GSK-3α (GSK-3β [5]; 5 μM): 12.3 fold
inhibition at 5 µM (GSK-3β [5]; read-out: GSK-3β inhibition (decrease of kinase activity)): 92.3%
inhibition at 5 µM (GSK-3α): 7.5%
inhibition of 40 out of 41 kinases of the test panel [6]: only marginal or weak inhibition
cytotoxicity (SH-SY5Y cells): no observable cytotoxicity
protection against Aβ42 neurotoxicity ([7]; 1.25 to 20 μM, 10 μM Aβ42, 72 hours): neuroprotection in a dose-dependent manner; also recorded: alleviates Aβ42 induced neurotoxicity
improvement in effectiveness compared to parent compound ([7]; 30 at 10 μM versus 1 at 200 μM): ~20 fold
EC50 ([7]; Homo sapiens, SH-SY5Y, 1 hour pretreatment, 10 μM Aβ42, 72 hours, read-out: neuroprotective potency EC50): 8.7 µM
effective dose, morphological protection from Aβ42 intoxication ([7]; morphological observations): 10 μM
increase of neuroprotective potency relative to 1 ([7]; vs parent compound 1): 5.4 fold
